Laboratory results from ChEMBL document CHEMBL3885861, “Open TG-GATES”.

Species on record: Rattus norvegicus
Assay: Open TG-GATES - Regimen: Single
Type: toxicity, organism-based, Sprague-Dawley
Parameters: regimen Single, gender Male, age 6 weeks
Settings: in vivo, po, 0 mg/kg, route gavage, dose level Control; for APTT / Bas / Eos / Fbg / Hb / Ht / Lym / MCH / MCHC / MCV / Mono / Neu / PT / Plat / RBC / Ret / WBC: tissue Blood; for KIDNEY_L / KIDNEY_R / KIDNEY_TOTAL: tissue Kidney; for LIVER: tissue Liver; for A/G / ALP / ALT / AST / BUN / CRE / Ca / Cl / DBIL / GLC / IP / K / LDH / Na / PL / RALB / TBIL / TC / TG / TP / gamma-GTP: tissue Plasma

## CC(=O)Nc1ccc2c(c1)Cc1ccccc1-2 [2-ACETYLAMINOFLUORENE]
3 h
  TERMINAL_BW: 224.8 g
  APTT: 20.9 s
  Bas: 0%
  Eos: 1%
  Fbg: 222.8 mg/dL
  Hb: 13.6 g/dL
  Ht: 39.5%
  Lym: 76.8%
  MCH: 21.5 pg
  MCHC: 34.5%
  MCV: 62.4 fL
  Mono: 2.4%
  Neu: 18.4%
  PT: 11.9 s
  Plat: 128.1 x10_4/uL
  RBC: 632.6 x10_4/ul
  Ret: 7.4%
  WBC: 87.7 x10_2/uL
  KIDNEY_L: 1 g
  KIDNEY_R: 1 g
  KIDNEY_TOTAL: 2 g
  LIVER: 10.3 g
  A/G: 1.7
  ALP: 1018.4 IU/L
  ALT: 36.6 IU/L
  AST: 77.4 IU/L
  BUN: 10.8 mg/dL
  CRE: 0.4 mg/dL
  Ca: 10.5 mg/dL
  Cl: 103.2 meq/L
  DBIL: 0.072 mg/dL
  GLC: 194.8 mg/dL
  IP: 9.7 mg/dL
  K: 4 meq/L
  LDH: 161.8 IU/L
  Na: 141 meq/L
  PL: 141.6 mg/dL
  RALB: 3.4 g/dL
  TBIL: 0.1 mg/dL
  TC: 77.8 mg/dL
  TG: 61.6 mg/dL
  TP: 5.5 g/dL
  gamma-GTP: 0.8 IU/L
6 h
  TERMINAL_BW: 219.6 g
  APTT: 20.9 s
  Bas: 0.6%
  Eos: 0.6%
  Fbg: 225.4 mg/dL
  Hb: 14.2 g/dL
  Ht: 40.9%
  Lym: 78.2%
  MCH: 21.8 pg
  MCHC: 34.6%
  MCV: 63.1 fL
  Mono: 2.8%
  Neu: 16.8%
  PT: 12.2 s
  Plat: 131.8 x10_4/uL
  RBC: 649.8 x10_4/ul
  Ret: 6.9%
  WBC: 108.9 x10_2/uL
  KIDNEY_L: 1 g
  KIDNEY_R: 1 g
  KIDNEY_TOTAL: 2 g
  LIVER: 9.3 g
  A/G: 1.7
  ALP: 956.2 IU/L
  ALT: 32.4 IU/L
  AST: 70.4 IU/L
  BUN: 9.6 mg/dL
  CRE: 0.4 mg/dL
  Ca: 10.5 mg/dL
  Cl: 101.4 meq/L
  DBIL: 0.076 mg/dL
  GLC: 196 mg/dL
  IP: 9.7 mg/dL
  K: 4.2 meq/L
  LDH: 166.6 IU/L
  Na: 140.4 meq/L
  PL: 139 mg/dL
  RALB: 3.4 g/dL
  TBIL: 0.1 mg/dL
  TC: 72.2 mg/dL
  TG: 89.8 mg/dL
  TP: 5.4 g/dL
  gamma-GTP: 1.2 IU/L
